Source: article PMC7180718, “Synthesis, Docking Studies and Biological Activity of New Benzimidazole- Triazolothiadiazine Derivatives as Aromatase Inhibitor” (Molecules, 2020)
Where two headings read alike, the source gives them in different places.

What was measured:
[1] = tested on: MCF-7 breast cancer cell line; assay: MTT cytotoxicity assay, MCF-7; assay type: cell-based, human
Experimental: (§1) The newly synthesized compounds were evaluated for their in vitro anticancer potential against MCF-7 breast cancer cell lines by MTT assay using cisplatin as a reference standard. The 50% inhibitory concentration (IC50) values were determined for these compounds. In addition, the cytotoxic activities of compounds 5c, 5e, 5k, and 5m were assessed against healthy NIH3T3 [25] cells, in order to express the selectivity toward carcinogenic cells. The IC50 values of test compounds were determined as the mean IC50 of 4 independent experiments.
(§2) The anticancer activity of compounds 5a–5p were screened according to the MTT assays. The MTT assays were performed as previously described. Cisplatin was used as the reference drug for the MCF7 cell line in the MTT assays.

NIH3T3 cells = assay: MTT cytotoxicity assay, healthy NIH3T3 cells; assay type: cell-based
Experimental: as §1, §2

[2] = target: T1, recombinant human aromatase (Homo sapiens, UniProt P11511); assay: Fluorometric aromatase (CYP19A) inhibitor screening kit (Bio Vision); assay type: biochemical; conditions: read-out: IC50 Aromatase Inhibition
T1 construct: purchased Bio Vision
T1 sequence (P11511 1-503): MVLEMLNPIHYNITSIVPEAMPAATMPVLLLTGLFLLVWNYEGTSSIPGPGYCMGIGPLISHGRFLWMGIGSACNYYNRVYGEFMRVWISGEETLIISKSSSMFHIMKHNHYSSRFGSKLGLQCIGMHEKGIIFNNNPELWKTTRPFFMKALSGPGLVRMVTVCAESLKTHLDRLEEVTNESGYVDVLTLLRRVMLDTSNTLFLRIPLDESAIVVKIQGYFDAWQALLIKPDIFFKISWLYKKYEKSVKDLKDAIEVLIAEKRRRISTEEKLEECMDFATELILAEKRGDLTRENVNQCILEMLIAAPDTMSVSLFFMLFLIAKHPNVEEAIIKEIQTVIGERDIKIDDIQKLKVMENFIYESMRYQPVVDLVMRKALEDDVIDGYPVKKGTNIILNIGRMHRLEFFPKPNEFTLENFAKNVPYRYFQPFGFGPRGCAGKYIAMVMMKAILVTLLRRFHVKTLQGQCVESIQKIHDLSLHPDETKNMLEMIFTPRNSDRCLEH

[3] = fluorometric kit, letrozole as reference

Structure (SMILES) | IC50 ([1]; n = 4) | further results
Clc1ccc(C2=Nn3c(nnc3-c3ccc(-c4nc5ccccc5[nH]4)cc3)SC2)c(Cl)c1 [Compound 5h, 3-(4-(1H-benzo[d]imidazol-2-yl)phenyl)-6-(2,4-dichlorophenyl)-7H-[1,2,4]triazole[3,4-b] [1,3,4] thiadiazine] | 342 ± 17 nM | 
Clc1ccc(C2=Nn3c(nnc3-c3ccc(-c4nc5cc(Cl)ccc5[nH]4)cc3)SC2)c(Cl)c1 [Compound 5p, 3-(4-(5-chloro-1H-benzo[d]imidazol-2-yl)phenyl)-6-(2,4-dichlorophenyl)-7H-[1,2,4]triazole [3,4-b][1,3,4] thiadiazine] | 147 ± 1 nM | 
Brc1ccc(C2=Nn3c(nnc3-c3ccc(-c4nc5ccccc5[nH]4)cc3)SC2)cc1 [Compound 5f, 3-(4-(1H-benzo[d]imidazol-2-yl)phenyl)-6-(4-bromophenyl)-7H-[1,2,4]triazole[3,4-b][1,3,4] thiadiazine] | 318 ± 19 nM | 
Fc1ccc(C2=Nn3c(nnc3-c3ccc(-c4nc5ccccc5[nH]4)cc3)SC2)cc1 [Compound 5c, 3-(4-(1H-benzo[d]imidazol-2-yl)phenyl)-6-(4-fluorophenyl)-7H-[1,2,4]triazole[3,4-b][1,3,4] thiadiazine] | 119 ± 5 nM | IC50 (NIH3T3 cells; n = 4): 81.8 ± 2.4 µM; IC50 [2, 3]: 1720 ± 42 nM
N.N.[Cl][Pt][Cl] [Cisplatin, reference compound] | 20 ± 9 nM | IC50 (NIH3T3 cells; n = 4): ≥ 1000 µM
N#Cc1ccc(C2=Nn3c(nnc3-c3ccc(-c4nc5ccccc5[nH]4)cc3)SC2)cc1 [Compound 5e, 3-(4-(1H-benzo[d]imidazol-2-yl)phenyl)-6-(4-cyanophenyl)-7H-[1,2,4]triazole[3,4-b][1,3,4] thiadiazine] |  | IC50 ([1]; Homo sapiens, MCF7, n = 4): 16 ± 1 nM; IC50 (NIH3T3 cells; Mus musculus, NIH3T3, n = 4): ≥ 1000 µM; IC50 [2]: 32 ± 1 nM; melting point: 259.3 to 263.1 °C
Clc1ccc2[nH]c(-c3ccc(-c4nnc5n4N=C(c4ccccc4)CS5)cc3)nc2c1 [Compound 5i, 3-(4-(5-chloro-1H-benzo[d]imidazol-2-yl)phenyl)-6-phenyl-7H-[1,2,4]triazole[3,4-b][1,3,4] thiadiazine] | 205 ± 5 nM | 
Clc1ccc2[nH]c(-c3ccc(-c4nnc5n4N=C(c4ccc(Br)cc4)CS5)cc3)nc2c1 [Compound 5n, 3-(4-(5-chloro-1H-benzo[d]imidazol-2-yl)phenyl)-6-(4-bromophenyl)-7H-[1,2,4]triazole [3,4-b][1,3,4] thiadiazine] | 264 ± 11 nM | 
Fc1ccc(C2=Nn3c(nnc3-c3ccc(-c4nc5cc(Cl)ccc5[nH]4)cc3)SC2)c(F)c1 [Compound 5o, 3-(4-(5-chloro-1H-benzo[d]imidazol-2-yl)phenyl)-6-(2,4-difluorohenyl)-7H-[1,2,4]triazole [3,4-b][1,3,4] thiadiazine] | 373 ± 11 nM | 
Clc1ccc(C2=Nn3c(nnc3-c3ccc(-c4nc5cc(Cl)ccc5[nH]4)cc3)SC2)cc1 [Compound 5j, 3-(4-(5-chloro-1H-benzo[d]imidazol-2-yl)phenyl)-6-(4-chlorophenyl)-7H-[1,2,4]triazole [3,4-b][1,3,4] thiadiazine] | 258 ± 11 nM | 
c1ccc(C2=Nn3c(nnc3-c3ccc(-c4nc5ccccc5[nH]4)cc3)SC2)cc1 [Compound 5a, 3-(4-(1H-benzo[d]imidazol-2-yl)phenyl)-6-phenyl-7H-[1,2,4]triazole[3,4-b][1,3,4] thiadiazine] | 142 ± 7 nM | 
Fc1ccc(C2=Nn3c(nnc3-c3ccc(-c4nc5cc(Cl)ccc5[nH]4)cc3)SC2)cc1 [Compound 5k, 3-(4-(5-chloro-1H-benzo[d]imidazol-2-yl)phenyl)-6-(4-fluorophenyl)-7H-[1,2,4]triazole [3,4-b][1,3,4] thiadiazine] | 110 ± 5 nM | IC50 (NIH3T3 cells; n = 4): 77.6 ± 2.1 µM; IC50 [2, 3]: 2280 ± 106 nM
Fc1ccc(C2=Nn3c(nnc3-c3ccc(-c4nc5ccccc5[nH]4)cc3)SC2)c(F)c1 [Compound 5g, 3-(4-(1H-benzo[d]imidazol-2-yl)phenyl)-6-(2,4-difluorohenyl)-7H-[1,2,4]triazole [3,4-b][1,3,4] thiadiazine] | 245 ± 4 nM | 
N#Cc1ccc(C2=Nn3c(nnc3-c3ccc(-c4nc5cc(Cl)ccc5[nH]4)cc3)SC2)cc1 [Compound 5m, 3-(4-(5-chloro-1H-benzo[d]imidazol-2-yl)phenyl)-6-(4-cyanophenyl)-7H-[1,2,4]triazole [3,4-b][1,3,4] thiadiazine] | 18 ± 1 nM | IC50 (NIH3T3 cells; n = 4): ≥ 1000 µM; IC50 [2, 3]: 1560 ± 64 nM
Cc1ccc(C2=Nn3c(nnc3-c3ccc(-c4nc5ccccc5[nH]4)cc3)SC2)cc1 [Compound 5d, 3-(4-(1H-benzo[d]imidazol-2-yl)phenyl)-6-(4-methylphenyl)-7H-[1,2,4]triazole[3,4-b][1,3,4] thiadiazine] | 194 ± 6 nM | 
Cc1ccc(C2=Nn3c(nnc3-c3ccc(-c4nc5cc(Cl)ccc5[nH]4)cc3)SC2)cc1 [Compound 5l, 3-(4-(5-chloro-1H-benzo[d]imidazol-2-yl)phenyl)-6-(4-methylphenyl)-7H-[1,2,4]triazole [3,4-b][1,3,4] thiadiazine] | 352 ± 19 nM | 
